These results are taken from patent publication US9931327B2, “Derivatives of 1-phenyl-2-pyridinyl alkyl alcohols as phosphodiesterase inhibitors” (Chiesi Farmaceutici S.p.A., priority 2011, dated 2018).

The structures appear in SMILES notation. Counter-ions that a name gives are not always drawn.

This assay deals with LPS-induced TNF-α release in peripheral blood mononuclear cells (PBMCs). Briefly: In vitro determination of PDE4 inhibitory activity in the PBMCs assay (LPS-induced TNF-α release). Type of assay: cell-based, human. The conditions noted are these: PBMC; human PBMCs, LPS 3 ng/ml, 18 hours, TNF-α by ELISA; read-out: PDE4 inhibition (IC50, 50% inhibition of LPS-induced TNF-α release). The protocol: The assay, which is based on the known inhibitory activity exerted by PDE4 inhibitors on the lipopolyshaccarides (LPS)-induced tumour necrosis factor-alpha (TNF-α release in peripheral blood mononuclear cells (PBMCs), was performed according to a method previously described (Hatzelmann A et al., J. Pharmacol. Exp. Ther., 2001; 297:267-279; and Draheim R et al., J. Pharmacol. Exp. Ther., 2004; 308:555-563, which are incorporated herein by reference in their entireties). Cryopreserved human PBMCs, (100 l/well) were incubated in 96-well plates (10^5 cells/well), for 30 minutes, in the presence or absence (50 microl) of the test compounds whose concentrations ranged from 10^−12 M to 10^−6 M or from […] to 10^−7 M. Subsequently, LPS (3 ng/ml) was added.
After 18 hours of incubation at 37° C. in a humidified incubator under an atmosphere of 95% air and 5% CO2, culture medium was collected and TNF-α measured by ELISA. The results of the tested compounds, representatives of the invention, expressed as mean±95% confidence limits of the molar concentration of the test compound producing 50% inhibition of LPS-induced TNF-α release (IC50) are shown in the following Table: […]
(In general: An ELISA detects its analyte on a solid surface through an enzyme-linked reagent.)
As a reminder, the IC50 is the concentration that inhibits the measured activity by half. In the case of `O=C(O[C@@H](Cc1c(Cl)c[n+]([O-])cc1Cl)c1ccc(OC(F)F)c(OCC2CC2)c1)C1SCCN1S(=O)(=O)c1ccc(F)cc1Cl` (stereo partly drawn) [Compound 68, 3,5-dichloro-4-((2S)-2-(3-(2-chloro-4-fluorophenylsulfonyl)thiazolidine-2-carbonyloxy)-2-(3-(cyclopropylmethoxy)-4-(difluoromethoxy)phenyl)ethyl)pyridine 1-oxide], the IC50 is 100 to 1000 pM.

With `CN(C)C(=O)c1cccc(S(=O)(=O)N2CCCC[C@H]2C(=O)O[C@@H](Cc2c(Cl)c[n+]([O-])cc2Cl)c2ccc(OC(F)F)c(OCC3CC3)c2)c1` [Compound 82, 3,5-dichloro-4-((S)-2-(3-(cyclopropylmethoxy)-4-(difluoromethoxy)phenyl)-2-((S)-1-(3-(dimethylcarbamoyl)phenylsulfonyl)piperidine-2-carbonyloxy)ethyl)pyridine 1-oxide], the IC50 is < 100 pM.

Turning to `O=C(CN1CCSC1C(=O)O[C@@H](Cc1c(Cl)c[n+]([O-])cc1Cl)c1ccc(OC(F)F)c(OCC2CC2)c1)c1cccs1` (stereo partly drawn) [Compound 144, 3,5-dichloro-4-((2S)-2-(3-(cyclopropylmethoxy)-4-(difluoromethoxy)phenyl)-2-(3-(2-oxo-2-(thiophen-2-yl)ethyl)thiazolidine-2-carbonyloxy)ethyl)pyridine 1-oxide], the IC50 lay within 100 to 1000 pM.

For `O=C(O[C@@H](Cc1c(Cl)c[n+]([O-])cc1Cl)c1ccc(OC(F)F)c(OCC2CC2)c1)C1SCCN1S(=O)(=O)c1ccsc1` (stereo partly drawn) [Compound 85, 3,5-dichloro-4-((2S)-2-(3-(cyclopropylmethoxy)-4-(difluoromethoxy)phenyl)-2-(3-(thiophen-3-ylsulfonyl)thiazolidine-2-carbonyloxy)ethyl)pyridine 1-oxide], the IC50 was < 100 pM.

Regarding `O=C(O[C@@H](Cc1c(Cl)c[n+]([O-])cc1Cl)c1ccc(OC(F)F)c(OCC2CC2)c1)[C@@H]1SCCN1C(=O)c1ccccc1` [Compound 186, 4-((S)-2-((S)-3-benzoylthiazolidine-2-carbonyloxy)-2-(3-(cyclopropylmethoxy)-4-(difluoromethoxy)phenyl)ethyl)-3,5-dichloropyridine 1-oxide], the IC50 lay in the range of 100 to 1000 pM.

Turning to `CS(=O)(=O)Nc1ccc(S(=O)(=O)N2CCSC2C(=O)O[C@@H](Cc2c(Cl)c[n+]([O-])cc2Cl)c2ccc(OC(F)F)c(OCC3CC3)c2)cc1` (stereo partly drawn) [Compound 142, 3,5-dichloro-4-((2S)-2-(3-(cyclopropylmethoxy)-4-(difluoromethoxy)phenyl)-2-(3-(4-(methylsulfonamido)phenylsulfonyl)thiazolidine-2-carbonyloxy)ethyl)pyridine 1-oxide], the IC50 fell in the range of 100 to 1000 pM.

As for `COc1ccc(OC)c(S(=O)(=O)N2CCS[C@H]2C(=O)O[C@@H](Cc2c(Cl)c[n+]([O-])cc2Cl)c2ccc(OC(F)F)c(OCC3CC3)c2)c1` [Compound 115, 3,5-dichloro-4-((S)-2-(3-(cyclopropylmethoxy)-4-(difluoromethoxy)phenyl)-2-((S)-3-(2,5-dimethoxyphenylsulfonyl)thiazolidine-2-carbonyloxy)ethyl)pyridine 1-oxide], the IC50 was < 100 pM.

`CN1C(=O)Cc2cc(S(=O)(=O)N3CCS[C@H]3C(=O)O[C@@H](Cc3c(Cl)c[n+]([O-])cc3Cl)c3ccc(OC(F)F)c(OCC4CC4)c3)ccc21` [Compound 210, 3,5-dichloro-4-((S)-2-(3-(cyclopropylmethoxy)-4-(difluoromethoxy)phenyl)-2-((S)-3-(1-methyl-2-oxoindolin-5-ylsulfonyl)thiazolidine-2-carbonyloxy)ethyl)pyridine 1-oxide]: the IC50 is < 100 pM.

For the compound `O=C(O[C@@H](Cc1c(Cl)c[n+]([O-])cc1Cl)c1ccc(OC(F)F)c(OCC2CC2)c1)C1SCCN1S(=O)(=O)c1ccc(F)cc1F` (stereo partly drawn) [Compound 67, 3,5-dichloro-4-((2S)-2-(3-(cyclopropylmethoxy)-4-(difluoromethoxy)phenyl)-2-(3-(2,4-difluorophenylsulfonyl)thiazolidine-2-carbonyloxy)ethyl)pyridine 1-oxide], the IC50 was in the range of 100 to 1000 pM.

For the compound `COc1ccc(S(=O)(=O)N2CCCC[C@H]2C(=O)O[C@@H](Cc2c(Cl)c[n+]([O-])cc2Cl)c2ccc(OC(F)F)c(OCC3CC3)c2)cc1C(=O)N(C)C` [Compound 129, 3,5-dichloro-4-((S)-2-(3-(cyclopropylmethoxy)-4-(difluoromethoxy)phenyl)-2-((S)-1-(3-(dimethylcarbamoyl)-4-methoxyphenylsulfonyl)piperidine-2-carbonyloxy)ethyl)pyridine 1-oxide], the IC50 was < 100 pM.

With `CS(=O)(=O)N(CCN1CCOCC1)c1cc(OCC2CC2)cc(C(=O)N2CCSC2C(=O)O[C@@H](Cc2c(Cl)c[n+]([O-])cc2Cl)c2ccc(OC(F)F)c(OCC3CC3)c2)c1` (stereo partly drawn) [Compound 49, 3,5-dichloro-4-((2S)-2-(3-(cyclopropylmethoxy)-4-(difluoromethoxy)phenyl)-2-(3-(3-(cyclopropylmethoxy)-5-(N-(2-morpholinoethyl)methylsulfonamido)benzoyl)thiazolidine-2-carbonyloxy)ethyl)pyridine 1-oxide formate], the IC50 lay within 100 to 1000 pM.

For the compound `COc1ccc(S(=O)(=O)N2CCSC2C(=O)O[C@@H](Cc2c(Cl)c[n+]([O-])cc2Cl)c2ccc(OC(F)F)c(OCC3CC3)c2)cc1C(=O)N1CCN(C)CC1` (stereo partly drawn) [Compound 127, 3,5-dichloro-4-((2S)-2-(3-(cyclopropylmethoxy)-4-(difluoromethoxy)phenyl)-2-(3-(4-methoxy-3-(4-methylpiperazine-1-carbonyl)phenylsulfonyl)thiazolidine-2-carbonyloxy)ethyl)pyridine 1-oxide], the IC50 lay in the range of 100 to 1000 pM.

Turning to `CN(C)C(=O)c1cccc(S(=O)(=O)N2CCN(CC(=O)O[C@@H](Cc3c(Cl)c[n+]([O-])cc3Cl)c3ccc(OC(F)F)c(OCC4CC4)c3)CC2)c1` [Compound 121, (S)-3,5-dichloro-4-(2-(3-(cyclopropylmethoxy)-4-(difluoromethoxy)phenyl)-2-(2-(4-(3-(dimethylcarbamoyl)phenylsulfonyl)piperazin-1-yl)acetoxy)ethyl)pyridine 1-oxide], the IC50 is 100 to 1000 pM.

Consider `Cc1cc(S(=O)(=O)N2CCS[C@H]2C(=O)O[C@@H](Cc2c(Cl)c[n+]([O-])cc2Cl)c2ccc(OC(F)F)c(OCC3CC3)c2)c(C)s1` [Compound 203, 3,5-dichloro-4-((S)-2-(3-(cyclopropylmethoxy)-4-(difluoromethoxy)phenyl)-2-((S)-3-(2,5-dimethylthiophen-3-ylsulfonyl)thiazolidine-2-carbonyloxy)ethyl)pyridine 1-oxide], for which the IC50 lay in the range of 100 to 1000 pM.

For `CNS(=O)(=O)c1ccc(S(=O)(=O)N2CCS[C@H]2C(=O)O[C@@H](Cc2c(Cl)c[n+]([O-])cc2Cl)c2ccc(OC(F)F)c(OCC3CC3)c2)cc1` [Compound 94, 3,5-dichloro-4-((S)-2-(3-(cyclopropylmethoxy)-4-(difluoromethoxy)phenyl)-2-((S)-3-(4-(N-methylsulfamoyl)phenylsulfonyl)thiazolidine-2-carbonyloxy)ethyl)pyridine 1-oxide], the IC50 is < 100 pM.

On to `Nc1ccc(S(=O)(=O)N2CCSC2C(=O)O[C@@H](Cc2c(Cl)c[n+]([O-])cc2Cl)c2ccc(OC(F)F)c(OCC3CC3)c2)cc1` (stereo partly drawn) [Compound 135, 4-((2S)-2-(3-(4-aminophenylsulfonyl)thiazolidine-2-carbonyloxy)-2-(3-(cyclopropylmethoxy)-4-(difluoromethoxy)phenyl)ethyl)-3,5-dichloropyridine 1-oxide], for which the IC50 is 100 to 1000 pM.
